Drawing on patent US20260000782A1, “ITGB2-MEDIATED DRUG DELIVERY SYSTEM” (TWINPIG BIOLAB INC., priority 2022, published 2026), this text covers FITC-positive cells and cell viability for two compounds.

Test [1] relates to M2 macrophages. Put plainly: Flow cytometry of FITC-conjugated melittin on M0, M1 and M2 macrophages. In kind it is cell-based, human. Conditions: 50 nM FITC-conjugated melittin, 1 hour; THP-1 derived M0, M1, M2 macrophages. On the procedure: To confirm whether the melittin fabricated in Example 1 specifically bound to M2 tumor-associated macrophages (M2 TAMs), a human monocyte cell line THP-1 was differentiated into M0, M1, and M2 macrophages, and treated with FITC-conjugated melittin, and then confirmed by flow cytometry. Specifically, THP-1 cells were treated with 100 nM phorbol 12-myristate 13-acetate (PMA) at 37° C. for 24 hours (M0 macrophages), and the differentiated M0 macrophages were incubated with 100 nM LPS and 20 ng/ml IFN-γ at 37° C. for 72 hours to be differentiated into M1 macrophages (M1), and incubated with 20 ng/ml IL-4 and IL-13 at 37° C. for 72 hours to be differentiated into M2 macrophages (M2). The differentiated cells were treated with 50 nM FITC-conjugated melittin for 1 hour, detected with BD FACS CantoII instruments (BD biosciences, San Jose, CA, USA), and analyzed with FlowJo software (BD biosciences).

In test [2] the test system is M2 macrophages. Briefly: CCK-8 cell viability in M2 macrophages (control, ITGB2 knockdown, ITGB2 antibody pretreatment). In kind it is cell-based, human. Conditions: Melittin-dKLA 1 μM, 24 hours. As for the experimental part:
As a cell model used to confirm whether apoptosis was induced through ITGB2 in M2 macrophages, a cell model in which the expression of ITGB2 was suppressed in M2 macrophages was fabricated using Crispr/cas9. Specifically, cells differentiated into M2 macrophages were cultured in an Opti-MEM medium. The Crispr/cas9 was mixed with Cas9 protein V2 (Thermo Fisher scientific) and gRNA (Genscript; ITGB2; Table 7) of a CRISPRMAX™ Reagent kit (Thermo Fisher scientific) and a Cas9 Plus™ Reagent (Thermo Fisher scientific), and a CRISPRMAX™ Reagent was diluted in the Opti-MEM medium, mixed together, and reacted for 5 to 10 minutes, and then added to cells differentiated into M2 macrophages and cultured at 37° C. for 2 to 3 days. Thereafter, the mRNA expression level of ITGB2 was confirmed.
To confirm whether Melittin-dKLA bound to ITGB2 to induce apoptosis in M2 macrophages, Melittin-dKLA (1 μM) was treated for 24 hours to M2 macrophages in which ITGB2 expression was suppressed by Crispr/cas9 fabricated in Example 7-1 above, and cell viability was analyzed using a CCK-8 assay. Specifically, Melittin-dKLA (1 μM) reacted with ITGB2 knockdown macrophages fabricated in Example 7-1 above for 1 hour. After the reaction, the medium was replaced and cultured at 37° C. for 24 hours. […] Absorbance was measured at 450 nm using a microplate reader (Molecular Devices). […]

For `CC[C@H](C)[C@H](NC(=O)CN)C(=O)NCC(=O)N[C@@H](C)C(=O)N[C@H](C(=O)N[C@@H](CC(C)C)C(=O)N[C@@H](CCCCN)C(=O)N[C@H](C(=O)N[C@@H](CC(C)C)C(=O)N[C@H](C(=O)N[C@H](C(=O)NCC(=O)N[C@@H](CC(C)C)C(=O)N1CCC[C@H]1C(=O)N[C@@H](C)C(=O)N[C@@H](CC(C)C)C(=O)N[C@H](C(=O)N[C@@H](CO)C(=O)N[C@@H](Cc1c[nH]c2ccccc12)C(=O)N[C@H](C(=O)N[C@@H](CCCCN)C(=O)N[C@@H](CCCNC(=N)N)C(=O)N[C@@H](CCCCN)C(=O)N[C@@H](CCCNC(=N)N)C(=O)N[C@@H](CCC(N)=O)C(=O)N[C@@H](CCC(N)=O)C(N)=O)[C@@H](C)CC)[C@@H](C)CC)[C@@H](C)O)[C@@H](C)O)C(C)C)C(C)C` [melittin, Melittin], the FITC-positive cells result with M2 macrophages [1] is recorded as “significantly increased in M2 macrophages”.
With “Peptide with linker and drug dKLA attached to melittin, SEQ ID NO: 5, GIGAVLKVLTTGLPALISWIKRKRQQ-GGGGS-d[KLAKLAKKLAKLAK] [Melittin-dKLA]”, the cell viability entry in the test on M2 macrophages [2] (M2 macrophages in which ITGB2 was knocked down (Crispr/cas9)) is given as “decrease in cell viability by Melittin-dKLA was suppressed”; in the test with M2 macrophages [2] (control M2 macrophages) it was “significantly reduced”.
